The test system of data set [1] is human breast cancer cell line ZR-75-1. In words: Assay for cell growth inhibitory activity (3D hydrogel culture, CCK-8). In kind it is cell-based. As to conditions: 96 h; for viability at 0.0001 µM: ZR-75-1, 0.1 nM, read-out: Cell survival rate at example drug concentration 0.1 nM; for viability at 0.001 µM: ZR-75-1, 1 nM, read-out: Cell survival rate at example drug concentration 1 nM; for viability at 0.01 µM: ZR-75-1, 10 nM, read-out: Cell survival rate at example drug concentration 10 nM; for viability at 0.1 µM: ZR-75-1, 100 nM, read-out: Cell survival rate at example drug concentration 100 nM; for viability at 1 µM: ZR-75-1, 1000 nM, read-out: Cell survival rate at example drug concentration 1000 nM. The protocol: The human breast cancer cell line ZR-75-1 (1 × 10^^6 cells per cell culture dish with 100-mm diameter) was cultured in a 1640 culture medium, and 1% double antibiotics (streptomycin and penicillin), 10% fetal bovine serum (FBS), and 1% glutamine (Glumax) were added simultaneously. The cell culture dish was placed at 37 °C with 5% CO2 for 2 days for culture until the cell confluence reached 80%-90% to give cells in the logarithmic growth phase.
• 1) The example compounds were each dissolved in dimethylsulfoxide to give solutions at a concentration of 10 mmol/L, and the solutions were diluted to 250 µmol/L in 10-fold gradient for 5 concentrations, i.e., 0.2 nmol/L, 2 nmol/L, 20 nmol/L, 200 nmol/L, and 2000 nmol/L. • 2) Blank control wells were prepared by adding 0.1% dimethylsulfoxide to the cultured cells, and were used as high-reading control wells; cell-free 3D hydrogel was used as background wells. • 3) The cultured cells were separately added to the compounds in the examples at 0.2 nmol/L, 2 nmol/L, 20 nmol/L, 200 nmol/L, and 2000 nmol/L as test wells, with the same volumes as the original culture solutions.
• 1) The cells were collected, resuspended in a PBS balanced salt solution, and counted; and the cells were mixed with the 3D hydrogel stock solution and prepared into hydrogel cell suspensions with proper density. • 2) The 3D hydrogel cell suspension (5 × 10^^4 cells) was added to each well in 96-well cell culture plates with low surface adsorption, and the plates were incubated at 37 °C with 5% CO2 for 20 min. • 3) The complete culture medium containing the compound prepared in 1.2 with an equal volume to that of the cell suspension in step 2 was added to the 96-well cell culture plate. • 4) The cells were cultured at 37 °C in a 5% CO2 incubator for 96 h.
• 1) The complete culture medium in the upper layer above the hydrogel was pipetted from each well of the 96-well cell culture plate with a vacuum pump or a manual pipette with careful processing to avoid breaking the hydrogel lower layer. • 2) The complete culture medium containing the CCK-8 substrate with an equal volume to that of the original hydrogel was added to each well. • 3) The plate was cultured at 37 °C with 5% CO2 for 1 h. • 4) The 96-well cell culture plate was placed in a microplate reader, and the values of A450 and A630 were separately detected.
Data analysis: The relative inhibitory level was analyzed by using Excel software, and the survival rates of cells under different compound culture conditions were obtained; [formula]
High-reading control well: cells + dimethylsulfoxide; background well: cell-free hydrogel. Table 7. Cell proliferation inhibitory activity of some of example compounds

In the next data set the target is T1, KAT6A (Homo sapiens, UniProt Q92794).
T1 construct: purchased active motife (Active Motif) 81223
T1 sequence (Q92794 whole entry): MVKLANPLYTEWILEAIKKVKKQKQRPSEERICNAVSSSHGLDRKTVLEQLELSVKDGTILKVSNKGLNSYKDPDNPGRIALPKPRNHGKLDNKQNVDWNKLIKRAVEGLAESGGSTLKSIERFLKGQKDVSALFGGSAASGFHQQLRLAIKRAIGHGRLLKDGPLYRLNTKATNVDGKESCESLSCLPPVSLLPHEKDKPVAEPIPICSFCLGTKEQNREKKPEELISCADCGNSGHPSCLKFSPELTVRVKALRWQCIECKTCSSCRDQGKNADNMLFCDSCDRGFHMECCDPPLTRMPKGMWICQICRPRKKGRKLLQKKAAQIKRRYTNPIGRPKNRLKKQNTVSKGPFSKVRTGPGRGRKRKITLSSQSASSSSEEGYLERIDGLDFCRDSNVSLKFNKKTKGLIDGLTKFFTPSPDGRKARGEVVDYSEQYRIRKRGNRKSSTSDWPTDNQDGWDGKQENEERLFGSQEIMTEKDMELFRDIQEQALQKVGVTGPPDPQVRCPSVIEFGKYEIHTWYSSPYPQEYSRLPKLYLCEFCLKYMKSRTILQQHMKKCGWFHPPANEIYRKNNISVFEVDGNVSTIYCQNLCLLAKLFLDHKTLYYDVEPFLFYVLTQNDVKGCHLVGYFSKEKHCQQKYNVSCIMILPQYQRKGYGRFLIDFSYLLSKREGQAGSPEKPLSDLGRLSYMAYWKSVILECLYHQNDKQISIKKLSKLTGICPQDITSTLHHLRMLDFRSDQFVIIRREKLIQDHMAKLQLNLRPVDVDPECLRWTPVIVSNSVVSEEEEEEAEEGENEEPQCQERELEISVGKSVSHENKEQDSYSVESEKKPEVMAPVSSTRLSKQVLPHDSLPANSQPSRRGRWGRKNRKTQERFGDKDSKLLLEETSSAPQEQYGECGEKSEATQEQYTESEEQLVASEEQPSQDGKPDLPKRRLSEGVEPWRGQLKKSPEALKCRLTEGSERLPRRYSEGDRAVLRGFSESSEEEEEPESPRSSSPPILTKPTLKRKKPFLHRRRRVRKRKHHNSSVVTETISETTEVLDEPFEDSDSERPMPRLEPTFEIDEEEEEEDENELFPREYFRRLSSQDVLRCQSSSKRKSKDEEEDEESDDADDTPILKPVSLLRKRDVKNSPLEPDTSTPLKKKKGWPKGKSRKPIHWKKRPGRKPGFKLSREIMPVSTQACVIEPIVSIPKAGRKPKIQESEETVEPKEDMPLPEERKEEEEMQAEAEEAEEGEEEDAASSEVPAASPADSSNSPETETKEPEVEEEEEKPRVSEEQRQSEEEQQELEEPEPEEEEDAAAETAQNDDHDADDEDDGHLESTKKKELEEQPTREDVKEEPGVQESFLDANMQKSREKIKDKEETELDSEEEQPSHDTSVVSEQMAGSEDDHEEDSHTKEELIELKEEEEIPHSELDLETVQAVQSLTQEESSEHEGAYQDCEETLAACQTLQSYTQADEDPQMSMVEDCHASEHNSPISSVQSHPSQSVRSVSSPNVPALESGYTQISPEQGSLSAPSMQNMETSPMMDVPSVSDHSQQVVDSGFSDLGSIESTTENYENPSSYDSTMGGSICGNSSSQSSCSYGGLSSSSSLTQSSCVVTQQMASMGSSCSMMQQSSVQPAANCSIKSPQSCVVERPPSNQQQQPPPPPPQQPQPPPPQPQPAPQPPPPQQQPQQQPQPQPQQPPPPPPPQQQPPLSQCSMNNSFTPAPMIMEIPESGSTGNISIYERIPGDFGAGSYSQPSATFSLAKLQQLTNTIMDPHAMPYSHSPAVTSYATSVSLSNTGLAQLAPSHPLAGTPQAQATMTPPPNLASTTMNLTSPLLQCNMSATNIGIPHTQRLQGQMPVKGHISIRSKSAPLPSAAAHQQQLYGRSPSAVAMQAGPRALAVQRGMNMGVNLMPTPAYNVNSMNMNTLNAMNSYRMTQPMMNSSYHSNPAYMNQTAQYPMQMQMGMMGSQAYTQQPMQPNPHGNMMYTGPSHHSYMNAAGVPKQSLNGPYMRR
In words: Enzymatic activity assay for KAT6A acetyltransferase (TR-FRET, acetylation of histone substrate H3). It is filed as biochemical. As to the method: The acetylation effect of KAT6A on histone substrate H3 was determined using the TR-FRET (time-resolved fluorescence resonance energy transfer) method.
• 1) The compounds prepared in the examples of the present disclosure were each dissolved in dimethylsulfoxide to give solutions at a concentration of 10 mmol/L, and then the solutions were diluted to 0.2 mmol/L, i.e., 1 µL of the compound was added to 49 µL of DMSO, and 3-fold dilution was performed to give 10 concentrations. • 2) 50 nL of the test compounds (example compounds) were transferred to 384 reaction plates using Echo, two replicates for each compound, and the plates were centrifuged at a rotation speed of 1000 rpm for 1 min, the final concentration of dimethylsulfoxide (DMSO) being 0.5%. • 3) 2.5 µL of the reaction mixtures obtained in step 2 was added to the 384 reaction plates in step 2), and the plates were centrifuged at 1000 rpm for 1 min and incubated at 25 °C for 10 min. • 4) 2.5 µL of Bio-H3&AcCOA (acetyl-CoA) reaction solution was added to the 384 reaction plates in step 3), and the plates were centrifuged at a rotation speed of 1000 rpm for 1 min and incubated at 25 °C for 90 min. • 5) 5 µL of Eu-Ab& Ulight-SA detection solution was added to the 384 reaction plates in step 4), and the plates were centrifuged at 1000 rpm for 1 min and incubated at 25 °C for 60 min. • 6) The HTRF […] signals were read using a BMG high-throughput drug-screening multi-mode microplate reader.
The acetylation level of the histone H3 was analyzed by the GraphPad Prism 8 software. The reading of the negative control (0.5% DMSO wells) was set as 0% inhibition rate, and the reading of the positive control (wells with the highest concentration of the control compound) was set as 100% inhibition rate. The inhibition rates were calculated, and then IC50 values (half maximal inhibitory concentration) of test compounds were obtained by using a software nonlinear fitting formula; [formula]
Datapositive control: mean of positive control well values; Datanegative control: mean of negative control well values. Table 3. Enzymatic inhibitory activity of example compounds

Data set [2] can be described thus: In-vivo pharmacokinetic study in rats. Also on record: species or system SD female rats. The settings on record: female, SD, rat, plasma, po, 5 mg/kg, intragastric administration; for AUC(0-t): read-out: AUC0-24h. As to the method: 1.1 Instrument: high-performance liquid chromatograph: SHIMADZU LC-30AD; mass spectrum: AB SCIEX mass spectrometer Triple Quad 5500; all measured data were calculated and processed using Microsoft Excel, and relevant pharmacokinetic parameters were calculated using WinNonlin software. The main obtained kinetic parameters are Tmax, T1/2, Cmax, AUC0-24 h, and AUCinf. […] Sample injection amount: 1 µL.
1.2 Animals: three SD female rats were used. The body weight range was 180-300 g. After purchase, the rats were bred in the experimental animal center for two days for later use. The rats were fasted 12 h before administration and 4 h after administration, and given ad libitum access to water during the assay. Blood samples were taken at predetermined time points after intragastric administration.
1.3 Vehicle: 0.5% HPMC (hydroxypropyl methylcellulose) + 0.4% Tween80 + 99.1% water. Preparation of intragastric administration solution: The compound was precisely weighed, the vehicle was added, and then the drug was completely dissolved by ultrasonication at room temperature for 5 min and prepared into a 0.5 mg/mL solution. After the intragastric administration, blood samples were taken at 0.083 h, 0.25 h, 0.5 h, 1.0 h, 2.0 h, 4.0 h, 7.0 h, and 24 h. The blood collection mode is as follows: 0.2 mL of the jugular vein blood was collected, EDTA-K2 was used as an anticoagulation agent, the collected blood sample was transferred into a microcentrifuge tube containing the anticoagulation agent, and the tube was centrifuged at 4 °C and 4000 g for 5 min to separate the plasma. All plasma samples collected were stored at -75±15 °C until analysis.
The compound was precisely weighed and prepared into a standard curve working solution and a quality control working solution at different concentrations. The blank plasma was added and prepared into a plasma standard curve and a quality control sample. LC/MS/MS analysis was performed after pretreatment using a protein precipitation method, and then the concentration of the compounds described above in the plasma was measured. All measured data were collected and processed by the relevant software, and pharmacokinetic parameters were calculated using Winnonlin software. Table 9. Pharmacokinetic parameters of some compounds in the examples in rats

Take `COc1nc(Cn2cccn2)cc2onc(NS(=O)(=O)c3cccc4c3OCC4)c12` [Example 1, N-(6-((1H-pyrazol-1-yl)methyl)-4-methoxyisoxazolo[4,5-c]pyridin-3-yl)-2,3-dihydrobenzofuran-7-sulfonamide]: in data set [1], the viability at 0.0001 µM is 95%, the viability at 0.001 µM was 80%, the viability at 0.01 µM was 54% and the viability at 0.1 µM worked out at 40%. The viability at 1 µM in data set [1] was determined as 30%. This molecule yielded a 50% inhibitory concentration (IC50) against KAT6A of 7.33 nM.
For `COc1ccc2c(c1S(=O)(=O)Nc1noc3cc(Cn4cccn4)nc(OC)c13)CCCC2` [Example 3], in data set [1], the viability at 0.0001 µM was determined as 71%, the viability at 0.001 µM was 55%, the viability at 0.01 µM was found to be 43% and the viability at 0.1 µM is 40%. In data set [1], the viability at 1 µM is 29%. At KAT6A, 1.76 nM corresponded to half-maximal inhibition (IC50).
As for `COc1cc2c(c(OC)c1S(=O)(=O)Nc1noc3cc(Cn4cccn4)nc(OC)c13)CCC2` [Example 62, N-(6-((1H-Pyrazol-1-yl)methyl)-4-methoxyisoxazolo[4,5-c]pyridin-3-yl)-4,6-dimethoxy-2,3-dihydro-1H-indene-5-sulfonamide], in data set [2], the half-life is at most 10 h, the AUC(0-inf) was 450 µg·h/mL, the Cmax was 25.6 µg/mL and the Tmax worked out at 1.17 h. In addition, the AUC(0-t) in data set [2] is 356 µg·h/mL. Further, the IC50 at KAT6A was determined as 0.84 nM.
`COc1ccc2cccnc2c1S(=O)(=O)Nc1noc2cc(Cn3cccn3)nc(OC)c12` [Example 11, N-(6-((1H-Pyrazol-1-yl)methyl)-4-methoxyisoxazolo[4,5-c]pyridin-3-yl)-7-methoxyquinoline-8-sulfonamide]: in data set [2], the AUC(0-inf) came to 32 µg·h/mL, the peak level (Cmax) was 3.31 µg/mL, the Tmax was 0.83 h and the AUC(0-t) was 32 µg·h/mL. This molecule had a half-inhibitory concentration (IC50) on KAT6A of 0.77 nM.
Consider `COc1nc(Cn2cccn2)cc2onc(NS(=O)(=O)c3cccc4c3ccn4C)c12` [Example 6, N-(6-((1H-Pyrazol-1-yl)methyl)-4-methoxyisoxazolo[4,5-c]pyridin-3-yl)-1-methyl-1H-indole-4-sulfonamide], for which, in data set [2], the half-life is 24.6 h, the total exposure AUC(0-inf) amounted to 1300 µg·h/mL, the peak concentration (Cmax) stood at 31.6 µg/mL and the Tmax turned out to be 0.33 h. The AUC(0-t) in data set [2] was 502 µg·h/mL. Moreover, in data set [1], the viability at 0.0001 µM turned out to be 74%, the viability at 0.001 µM was determined as 66%, the viability at 0.01 µM is 45% and the viability at 0.1 µM stood at 38%. Moreover, in data set [1], the viability at 1 µM is 25%. Besides, at KAT6A, 3.11 nM corresponded to half-maximal inhibition (IC50).
For the molecule `COc1ccc2c(c1S(=O)(=O)Nc1noc3cc(Cn4cccn4)nc(OC)c13)OC(C)C2` (stereo not drawn) [Example 66, N-(6-((1H-Pyrazol-1-yl)methyl)-4-methoxyisoxazolo[4,5-c]pyridin-3-yl)-6-methoxy-2-methyl-2,3-dihvdrobenzofuran-7-sulfonamide], the IC50 against KAT6A came to 1.22 nM.
The same measure, in the same setting: for `COc1ccc2c(c1S(=O)(=O)Nc1noc3cc(Cn4cccn4)nc(OC)c13)OCO2` [Example 58, N-(6-((1H-Pyrazol-1-yl)methyl)-4-methoxyisoxazolo[4,5-c]pyridin-3-yl)-5-methoxy-1,3-benzodioxole-4-sulfonamide] the value was 0.66 nM.

The values are drawn from patent EP4692094A1 (Beijing Konruns Pharmaceutical Co., Ltd., priority 2023, dated 2024).
